Measured values taken from patent US11555012B2 (Nimbus Artemis, Inc., priority 2018, dated 2023).

The compounds below were run against ACL (Homo sapiens (Human), UniProt P53396) (assay: ADP-Glo Assay).
Sequence of ACL (P53396 other isoform, or with tags, fused parts or gaps isoform P53396-2): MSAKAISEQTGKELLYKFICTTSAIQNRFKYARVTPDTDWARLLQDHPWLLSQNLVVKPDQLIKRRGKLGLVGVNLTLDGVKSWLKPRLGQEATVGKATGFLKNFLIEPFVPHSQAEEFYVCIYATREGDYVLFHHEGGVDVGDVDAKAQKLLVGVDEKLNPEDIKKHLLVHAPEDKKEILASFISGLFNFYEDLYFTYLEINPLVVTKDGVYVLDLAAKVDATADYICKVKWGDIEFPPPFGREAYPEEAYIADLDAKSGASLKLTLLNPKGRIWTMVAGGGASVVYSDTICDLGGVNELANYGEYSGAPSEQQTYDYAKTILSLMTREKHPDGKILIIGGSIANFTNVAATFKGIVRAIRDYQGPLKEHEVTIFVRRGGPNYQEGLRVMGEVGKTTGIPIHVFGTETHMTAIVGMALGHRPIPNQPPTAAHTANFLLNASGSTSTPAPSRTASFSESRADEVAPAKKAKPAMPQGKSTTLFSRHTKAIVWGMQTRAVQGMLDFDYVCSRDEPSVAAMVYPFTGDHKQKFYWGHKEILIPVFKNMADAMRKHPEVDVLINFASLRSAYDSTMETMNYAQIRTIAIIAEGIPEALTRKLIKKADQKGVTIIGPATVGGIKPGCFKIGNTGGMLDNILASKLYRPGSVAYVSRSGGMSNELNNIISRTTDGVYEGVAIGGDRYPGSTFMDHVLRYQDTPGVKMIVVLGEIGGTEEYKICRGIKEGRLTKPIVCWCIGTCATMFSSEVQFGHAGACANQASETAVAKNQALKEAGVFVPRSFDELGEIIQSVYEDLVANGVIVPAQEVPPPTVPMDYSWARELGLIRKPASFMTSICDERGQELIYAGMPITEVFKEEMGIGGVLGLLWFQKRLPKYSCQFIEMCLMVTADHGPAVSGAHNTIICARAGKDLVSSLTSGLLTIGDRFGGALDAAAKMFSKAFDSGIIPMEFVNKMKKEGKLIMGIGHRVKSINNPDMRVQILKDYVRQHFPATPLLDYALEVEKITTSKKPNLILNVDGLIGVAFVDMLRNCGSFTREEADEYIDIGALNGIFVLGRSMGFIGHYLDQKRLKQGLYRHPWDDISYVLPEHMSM
Protocol: Compounds of the present invention were evaluated in an ADP-GLO assay as follows:
b) Add 0.1 μL diluted cpd solution to assay plate, each dose with 2 replicates c) Centrifuge 1000 RPM for 1 min d) Add 5 μL ACL working solution to 384-well assay plate, centrifuge 1000 RPM for 1 min e) Incubate at 25° C. for 15 min f) Add 5 μL substrate working solution to initiate reaction
h) Reference final conc: 30 uM starting Conc, 3× dilution, 11+0 points. Test cpd conc: 30/100 uM starting Conc, 3× dilution, 11+0 points. i) Incubate at 25° C. for 60 min j) Add 10 μL ADP Glo reagent, centrifuge 1000 RPM for 1 min k) Incubate at 25° C. for 40 min l) Add 20 μL kinase detection reagent, centrifuge 1000 RPM for 1 min m) Incubate at 25° C. for 40 min n) Read on Envision for US LUM as RLU
O=S(=O)(Nc1cc(-c2ccccc2)ccc1F)c1cccc2cc[nH]c12 [I-377, N-[4-fluoro-[1,1-biphenyl]-3-yl]-1H-indole-7-sulfonamide] was tested, and the IC50 was > 20 µM. For COc1c(Cl)cc(C(=O)N2CCC2)cc1S(=O)(=O)Nc1cc(-c2ccccc2)c(F)cc1F [I-378, 5-(azetidine-1-carbonyl)-3-chloro-N-[4,6-difluoro-[1,1-biphenyl]-3-yl]-2-methoxybenzene-1-sulfonamide], the IC50 was > 20 µM. With O=C(O)COc1ccccc1S(=O)(=O)Nc1cc(-c2ccccc2)ccc1F [I-379, 2-(2-(N-(4-fluoro-[1,1′-biphenyl]-3-yl)sulfamoyl)phenoxy)acetic Acid] the IC50 was > 20 µM. In the case of COc1ccc(Br)cc1S(=O)(=O)Nc1cc(-c2ccccc2)c(F)cc1F [I-380, 5-bromo-N-[4,6-difluoro-[1,1-bipheny1]-3-yl]-2-methoxybenzene-1-sulfonamide], the IC50 is reported as > 20 µM. In the case of N#Cc1cc(S(=O)(=O)Nc2cc(-c3ccccc3)c(F)cc2F)ccc1F [I-381, 3-cyano-N-(4,6-difluoro-[1,1′-biphenyl]-3-yl)-4-fluorobenzenesulfonamide], the IC50 is reported as > 20 µM. CC(C)(C)OC(=O)n1ccc2cccc(S(=O)(=O)Nc3cc(-c4ccccc4)ccc3F)c21 [I-382, tert-butyl 7-(N-(4-fluoro-[1,1′-biphenyl]-3-yl)sulfamoyl)-1H-indole-1-carboxylate] was tested, and the IC50 was > 20 µM. In the case of O=S(=O)(Nc1cc(-c2ccccc2)c(F)cc1F)c1cccc2c1OCCO2 [I-383, N-[4,6-difluoro-[1,1-biphenyl]-3-yl]-2,3-dihydro-1,4-benzodioxine-5-sulfonamide], the IC50 is reported as > 20 µM. In the case of COc1ccc(C(=O)N2CCC2)cc1S(=O)(=O)Nc1cc(-c2ccccc2)c(F)cc1F [I-384, 5-(azetidine-1-carbonyl)-N-[4,6-difluoro-[1,1-biphenyl]-3-yl]-2-methoxybenzene-1-sulfonamide], the IC50 is reported as > 20 µM. In the case of CS(=O)(=O)c1ccccc1S(=O)(=O)Nc1cc(-c2ccccc2)c(F)cc1F [I-385, N-[4,6-difluoro-[1,1-biphenyl]-3-yl]-2-methanesulfonylbenzene-1-sulfonamide], the IC50 is reported as > 20 µM. For O=C(c1cc(Cl)cc(S(=O)(=O)Nc2cc(-c3ccccc3)c(F)cc2F)c1)N1CCC1 [I-386, 3-(azetidine-1-carbonyl)-5-chloro-N-(4,6-difluoro-[1,1′-biphenyl]-3-yl)benzenesulfonamide], the IC50 was > 20 µM. In the case of CC(C)(C)OC(=O)COc1c(Cl)cc(C(=O)N2CCC2)cc1S(=O)(=O)Nc1cc(-c2ccccc2)c(F)cc1F [I-387, tert-butyl 2-[4-(azetidine-1-carbonyl)-2-chloro-6-([4,6-difluoro-[1,1-biphenyl]-3-yl]sulfamoyl)phenoxy]acetate], the IC50 is reported as > 20 µM. For CO[C@@H]1CCN(C(=O)c2cc(Cl)cc(S(=O)(=O)Nc3cc(-c4ccccc4)c(F)cc3F)c2)C1 [I-388, (R)-3-chloro-N-(4,6-difluoro-[1,1′-biphenyl]-3-yl)-5-(3-methoxypyrrolidine-1-carbonyl)benzenesulfonamide], the IC50 was > 20 µM. In the case of CO[C@H]1CCN(C(=O)c2cc(Cl)cc(S(=O)(=O)Nc3cc(-c4ccccc4)c(F)cc3F)c2)C1 [I-389, (S)-3-chloro-N-(4,6-difluoro-[1,1′-biphenyl]-3-yl)-5-(3-methoxypyrrolidine-1-carbonyl)benzenesulfonamide], the IC50 is reported as > 20 µM. With O=S(=O)(Nc1cc(-c2ccccc2)c(F)cc1F)c1cccc2nsnc12 [I-390, N-(4,6-difluoro-[1,1 biphenyl]-3-yl)benzo[c][1,2,5]thiadiazole-4-sulfonamide] the IC50 was > 20 µM. With COc1ccc(-c2ccccc2)cc1N(Cc1cc(Cl)cc(Cl)c1O)S(C)(=O)=O [I-391, N-(3,5-dichloro-2-hydroxybenzyl)-N-(4-methoxy-[1,1′-biphenyl]-3-yl)methanesulfonamide] the IC50 was > 20 µM. In the case of CS(=O)(=O)c1cc(Cl)cc(S(=O)(=O)Nc2cc(-c3ccccc3)c(F)cc2F)c1 [I-392, 3-chloro-N-(4,6-difluoro-[1,1′-biphenyl]-3-yl)-5-(methylsulfonyl)benzenesulfonamide], the IC50 is reported as > 20 µM. O=S(=O)(Nc1ccc(-c2ccccc2)cc1F)c1cccc2ncoc12 [I-393, N-(3-fluoro-[1,1′-biphenyl]-4-yl)benzo[d] oxazole-7-sulfonamide] was tested, and the IC50 was > 20 µM. With COc1ccc(-c2ccccc2)cc1NS(=O)(=O)c1cc(Cl)cc(Cl)c1F [I-394, 3,5-dichloro-2-fluoro-N-[4-methoxy-[1,1-biphenyl]-3-yl]benzene-1-sulfonamide] the IC50 was > 20 µM. In the case of O=S(=O)(Nc1cc(N2CCNCC2)c(F)cc1F)c1cc(Cl)cc(Cl)c1O [I-395, 3,5-dichloro-N-(2,4-difluoro-5-(piperazin-1-yl)phenyl)-2-hydroxybenzenesulfonamide], the IC50 is reported as > 20 µM. For COc1ccc(-c2ccccc2)cc1NS(=O)(=O)c1cccc(C#N)c1 [I-396, 3-cyano-N-(2-methoxy-5-phenylphenyl) benzene-1-sulfonamide], the IC50 was > 20 µM. COc1ccc(-c2ccccc2)cc1N(Cc1ccccc1)S(=O)(=O)c1c(C)c(Cl)cc(Cl)c1OCc1ccccc1 [I-397, N-benzyl-2-(benzyloxy)-3,5-dichloro-N-(4-methoxy-[1,1′-biphenyl]-3-yl)-6-methylbenzenesulfonamide] was tested, and the IC50 was > 20 µM. With COc1ccc(-c2ccccc2)cc1NS(=O)(=O)c1cc(Cl)cc(Cl)c1C(=O)O [I-398, 2,4-dichloro-6-(N-(4-methoxy-[1,1′-biphenyl]-3-yl)sulfamoyl) Benzoic Acid] the IC50 was > 20 µM. With O=C(O)CCc1cc(Cl)c(O)c(S(=O)(=O)Nc2cc(F)cc(F)c2)c1 [I-399, 3-(3-chloro-5-(N-(3,5-difluorophenyl)sulfamoyl)-4-hydroxyphenyl) Propanoic Acid] the IC50 was > 20 µM. With COc1ccc(-c2ccccc2)cc1NS(=O)(=O)c1c(C)nn(C)c1Cl [I-400, 5-chloro-N-(4-methoxy-[1,1′-biphenyl]-3-yl)-1,3-dimethyl-1H-pyrazole-4-sulfonamide] the IC50 was > 20 µM. With COc1ccc(-c2ccccc2)cc1N(C)S(=O)(=O)c1cc(Cl)cc(Cl)c1OC [I-401, 3,5-dichloro-2-methoxy-N-(4-methoxy-[1,1′-biphenyl]-3-yl)-N-methylbenzenesulfonamide] the IC50 was > 20 µM. COc1ccc(-c2ccccc2)cc1NS(=O)(=O)c1cc(Cl)cc(Cl)c1OC [I-402, 3,5-dichloro-2-methoxy-N-(4-methoxy-[1,1′-biphenyl]-3-yl)benzenesulfonamide] was tested, and the IC50 was > 20 µM. COc1cc(-c2ccccc2)ccc1NS(=O)(=O)c1cc(Cl)cc(Cl)c1C [I-403, 3,5-dichloro-N-(3-methoxy-[1,1′-biphenyl]-4-yl)-2-methylbenzenesulfonamide] was tested, and the IC50 was > 20 µM. COc1ccc(C(=O)O)cc1NS(=O)(=O)c1cc(Cl)cc(Cl)c1O [I-404, 3-((3,5-dichloro-2-hydroxyphenyl)sulfonamido)-4-methoxybenzoic acid] was tested, and the IC50 was > 20 µM. COc1ccc(-c2ccccc2)cc1NS(=O)(=O)c1cc(Cl)cc(Cl)c1 [I-405, 3,5-dichloro-N-(4-methoxy-[1,1′-biphenyl]-3-yl)benzenesulfonamide] was tested, and the IC50 was > 20 µM. COc1ccc(-c2ccccc2)cc1NS(=O)(=O)c1cccc(C(=O)O)c1 [I-406, 3-(N-(4-methoxy-[1,1′-biphenyl]-3-yl)sulfamoyl)benzoic acid] was tested, and the IC50 was > 20 µM. For COc1ccc(-c2ccccc2)cc1NS(=O)(=O)c1cc(C(=O)O)cs1 [I-408, 5-(N-(4-methoxy-[1,1′-biphenyl]-3-yl)sulfamoyl) thiophene-3-carboxylic acid], the IC50 was > 20 µM. For COc1ccc(-c2ccccc2)cc1NS(=O)(=O)c1ccc(C#N)cc1 [I-410, 4-cyano-N-(2-methoxy-5-phenylphenyl)benzene-1-sulfonamide], the IC50 was > 20 µM. COc1ccc(C(=O)OC2CC2)cc1NS(=O)(=O)c1cc(Cl)cc(Cl)c1O [I-411, cyclopropyl 3-((3,5-dichloro-2-hydroxyphenyl)sulfonamido)-4-methoxybenzoate] was tested, and the IC50 was > 20 µM. In the case of O=C(O)c1ccc(NS(=O)(=O)c2cc(Cl)cc(Cl)c2O)cc1Cl [I-412, 2-chloro-4-[(3,5-dichloro-2-hydroxybenzene)sulfonamido]benzoic acid], the IC50 is reported as > 20 µM. For COc1c(Cl)cc(Cl)cc1S(=O)(=O)Nc1cc(C(=O)O)ccc1F [I-413, 3-[(3,5-dichloro-2-methoxybenzene)sulfonamido]-4-fluorobenzoic Acid], the IC50 was > 20 µM. In the case of COc1ccc(-c2ccccc2)cc1NS(=O)(=O)c1cc(Cl)cc(Cl)c1N [I-414, 2-amino-3,5-dichloro-N-(2-methoxy-5-phenylphenyl) benzene-1-sulfonamide], the IC50 is reported as > 20 µM. In the case of Cn1cc(Cl)cc(S(=O)(=O)Nc2cc(-c3ccccc3)ccc2F)c1=O [I-415, 5-chloro-N-(2-fluoro-5-phenylphenyl)-1-methyl-2-oxo-1,2-dihydropyridine-3-sulfonamide], the IC50 is reported as > 20 µM. For COc1ccc(-c2ccccc2)cc1NS(=O)(=O)c1ccc(O)c(Cl)c1 [I-416, 3-chloro-4-hydroxy-N-(2-methoxy-5-phenylphenyl)benzene-1-sulfonamide], the IC50 was > 20 µM. With COc1ccc(-c2ccccc2)cc1N(Cc1ccccc1)S(=O)(=O)c1cn[nH]c1 [I-417, N-benzyl-N-(2-methoxy-5-phenylphenyl)-1H-pyrazole-4-sulfonamide] the IC50 was > 20 µM. In the case of N#Cc1ccc(F)c(S(=O)(=O)Nc2cc(-c3ccccc3)ccc2F)c1 [I-418, 5-cyano-2-fluoro-N-(2-fluoro-5-phenylphenyl) benzene-1-sulfonamide], the IC50 is reported as > 20 µM. For N#Cc1cccc(S(=O)(=O)Nc2cc(-c3ccccc3)ccc2F)c1 [I-419, 3-cyano-N-(2-fluoro-5-phenylphenyl)benzene-1-sulfonamide], the IC50 was > 20 µM. For O=C(COc1c(Br)cc(Cl)cc1S(=O)(=O)N(Cc1ccccc1)c1cc(-c2ccccc2)ccc1F)OCc1ccccc1 [I-420, benzyl 2-(2-(N-benzyl-N-(4-fluoro-[1,1′-biphenyl]-3-yl)sulfamoyl)-6-bromo-4-chlorophenoxy)acetate], the IC50 was > 20 µM. With COC(=O)c1cccc(S(=O)(=O)Nc2cc(-c3ccccc3)ccc2OC)c1 [I-421, methyl 3-(N-(4-methoxy-[1,1′-biphenyl]-3-yl)sulfamoyl)benzoate] the IC50 was > 20 µM. COc1ccc(-c2ccccc2)cc1NS(=O)(=O)c1cc(Cl)cc(C#N)c1 [I-422, 3-chloro-5-cyano-N-(2-methoxy-5-phenylphenyl)benzene-1-sulfonamide] was tested, and the IC50 was > 20 µM.
